PubChem BioAssay (NCI)
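Test compounds were applied to cells in 96-well plates for 48 hours at 5 doses. The concentration for full growth arrest is given as TGI.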

What was measured:
Assay in all cases: NCI tumour cell line growth inhibition, 48 h
786-0 renal = tested on: 786-0 renal
BT-549 breast = tested on: BT-549 breast
DU-145 prostate = tested on: DU-145 prostate
HL-60(TB) leukemia = tested on: HL-60(TB) leukemia
HT29 colon = tested on: HT29 colon
M14 melanoma = tested on: M14 melanoma
NCI-H226 lung = tested on: NCI-H226 lung
NCI-H23 lung = tested on: NCI-H23 lung
OVCAR-4 ovarian = tested on: OVCAR-4 ovarian
RXF 393 renal = tested on: RXF 393 renal
COLO 205 colon = tested on: COLO 205 colon
SK-MEL-28 melanoma = tested on: SK-MEL-28 melanoma
SW-620 colon = tested on: SW-620 colon
A498 renal = tested on: A498 renal
MCF7 breast = tested on: MCF7 breast
MDA-MB-231 breast = tested on: MDA-MB-231 breast
PC-3 prostate = tested on: PC-3 prostate

SMILES	TGI (786-0 renal)	TGI (BT-549 breast)	TGI (DU-145 prostate)	TGI (HL-60(TB) leukemia)	TGI (HT29 colon)	TGI (M14 melanoma)	TGI (NCI-H226 lung)	TGI (NCI-H23 lung)	TGI (OVCAR-4 ovarian)	TGI (RXF 393 renal)	TGI (COLO 205 colon)	TGI (SK-MEL-28 melanoma)	TGI (SW-620 colon)	TGI (A498 renal)	TGI (MCF7 breast)	TGI (MDA-MB-231 breast)	TGI (PC-3 prostate)
CN1CNc2nc(N)n(C)c(=O)c2C1	> 10 µM	> 10 µM	> 10 µM	> 10 µM	> 10 µM	> 10 µM	> 10 µM	> 10 µM	> 10 µM	> 10 µM	–	–	–	–	–	–	–
CC1CN(c2ccc(Cl)cc2)CC(C)OC(=O)O1 (stereo unspecified)	> 100 µM	–	–	> 100 µM	> 100 µM	> 100 µM	> 100 µM	> 100 µM	> 100 µM	> 100 µM	> 100 µM	> 100 µM	> 100 µM	–	–	–	–
CCOC(=O)/C=C/n1c2ccccc2c(=O)c2ccccc21	> 100 µM	–	–	> 100 µM	> 100 µM	> 100 µM	> 100 µM	> 100 µM	> 100 µM	> 100 µM	> 100 µM	> 100 µM	> 100 µM	> 100 µM	–	–	–
CCOC(=O)Cn1c(=O)c2nc(SC)sc2n(CC)c1=S	0.32 µM	–	> 100 µM	> 100 µM	> 100 µM	17.4 µM	> 100 µM	> 100 µM	> 100 µM	> 100 µM	> 100 µM	> 100 µM	> 100 µM	–	> 100 µM	> 100 µM	> 100 µM
CCSc1n/c(=C\c2ccco2)c2nncn12	> 100 µM	–	> 100 µM	> 100 µM	> 100 µM	> 100 µM	> 100 µM	> 100 µM	–	–	> 100 µM	> 100 µM	> 100 µM	–	> 100 µM	> 100 µM	> 100 µM
COc1ccc(-n2c(=O)[nH]n(C(C)=O)c2=O)cc1	> 100 µM	–	> 100 µM	> 100 µM	> 100 µM	> 100 µM	> 100 µM	> 100 µM	> 100 µM	> 100 µM	> 100 µM	> 100 µM	> 100 µM	> 100 µM	> 100 µM	> 100 µM	> 100 µM
CN(C)CCNC(=O)c1cc([N+](=O)[O-])cc2c1Oc1ccccc1O2	> 100 µM	> 100 µM	> 100 µM	> 100 µM	> 100 µM	> 100 µM	50 µM	> 100 µM	> 100 µM	93.7 µM	33.3 µM	> 100 µM	> 100 µM	> 100 µM	> 100 µM	–	> 100 µM
Cc1cccc(N(C(=O)Nc2ccc(Cl)c(Cl)c2)C2=NCC(C)S2)c1 (stereo unspecified)	> 100 µM	–	> 100 µM	> 100 µM	> 100 µM	> 100 µM	–	> 100 µM	> 100 µM	–	> 100 µM	> 100 µM	> 100 µM	> 100 µM	58.8 µM	> 100 µM	> 100 µM
COc1ccc(-n2cnc3c2NC(C)(C)N=C3C(N)=O)c(OC)c1	> 100 µM	–	> 100 µM	> 100 µM	> 100 µM	> 100 µM	> 100 µM	> 100 µM	> 100 µM	> 100 µM	> 100 µM	> 100 µM	> 100 µM	> 100 µM	> 100 µM	> 100 µM	> 100 µM
N#C/C(c1nc2ccccc2[nH]1)=c1\s/c(=C/c2ccc(Cl)cc2)c(=O)n1-c1ccccc1	> 100 µM	–	–	> 100 µM	–	> 100 µM	> 100 µM	> 100 µM	> 100 µM	–	> 100 µM	> 100 µM	> 100 µM	> 100 µM	–	–	–
O=c1ccn([C@@H]2C[C@@H]2CO)c(=O)[nH]1	> 100 µM	> 100 µM	> 100 µM	> 100 µM	> 100 µM	> 100 µM	> 100 µM	> 100 µM	> 100 µM	> 100 µM	> 100 µM	> 100 µM	> 100 µM	> 100 µM	> 100 µM	–	> 100 µM
CN(C)C(=S)/N=c1\ssc(=S)n1Cc1cccnc1	> 100 µM	–	> 64.3 µM	> 57.8 µM	> 49.5 µM	59.2 µM	> 100 µM	> 69.6 µM	> 100 µM	17.8 µM	32.1 µM	> 100 µM	> 53.2 µM	> 100 µM	> 100 µM	> 100 µM	> 100 µM
COc1cc(CO)c(CC(=O)NCCCc2ccccc2)cc1OC	> 100 µM	> 100 µM	> 100 µM	> 100 µM	> 100 µM	> 100 µM	> 100 µM	> 100 µM	> 100 µM	–	> 100 µM	> 100 µM	> 100 µM	> 100 µM	–	> 100 µM	> 100 µM
CCOC(=O)c1c(N)sc2c1C(C)(C(=O)OCC)CC2 (stereo unspecified)	> 100 µM	> 100 µM	–	> 100 µM	> 100 µM	> 100 µM	> 100 µM	> 100 µM	–	> 100 µM	> 100 µM	> 100 µM	> 100 µM	83 µM	> 100 µM	> 100 µM	> 100 µM
Cc1ccc(NC2=CC(=O)C(NO)c3ccccc32)cc1 (stereo unspecified)	17.4 µM	26.4 µM	7.41 µM	4.73 µM	17.1 µM	11.4 µM	49.3 µM	4.22 µM	9.71 µM	12.7 µM	8.72 µM	29.5 µM	> 100 µM	33.4 µM	10.8 µM	7.12 µM	–
CC(C)CC(NC(=O)OC(C)(C)C)C(=O)Nc1ccc(Nc2nc(F)nc(-c3c4ccccc4c4n3CCS4)n2)cc1 (stereo unspecified)	34.8 µM	–	–	46.5 µM	34.8 µM	35.1 µM	–	33.1 µM	–	62.1 µM	33.3 µM	42.7 µM	30.7 µM	45.8 µM	–	–	–
